Source: patent publication US20060130172A1, “Gene encoding resistance to acetolactate synthase-inhibiting herbicides” (priority 2003, published 2006)

Assays:
[1] = system: R11-AMACH smooth pigweed; assay: Greenhouse screen of ALS-inhibiting herbicides on resistant smooth pigweed biotype; type: in vivo, Amaranthus hybridus L.; conditions: 3 WAT; for Biomass Reduction: compared to untreated plant biomass; for Biomass: plant dry weight; for Visual Control: scale 0-99%
Source text: (§1) Seeds from a smooth pigweed (Aniaranthus hybridus L.) population (R11-AMACH) were collected from a field in southeastern Pennsylvania where extreme ALS-inhibitor herbicide selection pressure was imposed over a several year period within continuous soybean production. R11-AMACH was selected naturally with ALS-inhibiting herbicides representative of the SU, IMI, and TP herbicide chemistries.
(§2) To establish levels and patterns of ALS resistance, R11-AMACH and an ALS susceptible smooth pigweed biotype (S-AMACH) were screened in the greenhouse with various rates of the ALS-inhibiting herbicides, chlorimuron (SU), thifensulfuron (SU), imazethapyr (IMI), pyrithiobac (POB), and cloransulam-methyl (TP). Rates evaluated were based on a log10 scale that included 0, 1/100×, 1/10×, 1×, 10×, and 100×, where 1× corresponds to the normal use rate in the field. R11-AMACH responded differently to the rate increase as compared to S-AMACH. […] Visual control, height, biomass, and biomass reduction are presented separately for chlorimuron (Table 3), thifensulfuron (Table 4), imazethapyr (Table 5), pyrithiobac (Table 6), and cloransulam (Table 7). Evaluations and measurements were recorded 3 weeks after herbicide treatment (WAT). Visual control was based on a scale of 0-99%, where 0% represents no control and 99% represents complete control. Biomass represents plant dry weights recorded several days after plants were harvested. Biomass reduction was calculated based on the amount of biomass reduced by herbicide treatment compared to the untreated plant biomass.

[2] = system: S-AMACH smooth pigweed; assay: Greenhouse screen of ALS-inhibiting herbicides on susceptible smooth pigweed biotype; type: in vivo, Amaranthus hybridus L.; conditions: 3 WAT; for Biomass Reduction: compared to untreated plant biomass; for Biomass: plant dry weight; for Visual Control: scale 0-99%
Source text: as §1, §2

[3] = rate 1/100× (1× = normal use rate in the field)

SMILES | Height ([1]; rate 1/10×) | Biomass Reduction ([1]; rate 1/10×) | Biomass ([1]; rate 1/10×) | Visual Control ([1]; rate 1/10×) | Visual Control [1, 3] | Height ([1]; rate 1/100×) | Biomass Reduction ([1]; rate 1/100×) | Biomass ([1]; rate 1/100×) | Visual Control ([1]; rate 1× (normal use rate)) | Height ([1]; rate 1×) | Biomass Reduction ([1]; rate 1×) | Biomass ([1]; rate 1×) | Height ([1]; rate 10×) | Biomass Reduction ([1]; rate 10×) | Biomass ([1]; rate 10×) | Visual Control ([1]; rate 10×) | Height ([1]; rate 100×) | Biomass Reduction ([1]; rate 100×) | Biomass ([1]; rate 100×) | Visual Control ([1]; rate 100×) | other results
CCOc1nc(F)cc2nc(S(=O)(=O)Nc3c(Cl)cccc3C(=O)OC)nn12 [cloransulammethyl] | 34.5 cm | 24.7% | 8.16 g | 23% | 0% | 47.8 cm | 0.5% | 10.78 g | 16% | 37.6 cm | 30.8% | 7.49 g | 32.0 cm | 40.5% | 6.44 g | 39% | 12.2 cm | 75.3% | 2.68 g | 63% | Height ([2]; rate 1/10×): 3.6 cm; Biomass Reduction ([2]; rate 1/10×): 97.1%; Biomass ([2]; rate 1/10×): 0.25 g; Visual Control ([2]; rate 1/10×): 91%; Height ([2]; rate 1/100×): 0.7 cm; Biomass Reduction ([2]; rate 1/100×): 99.8%; Biomass ([2]; rate 1/100×): 0.02 g; Visual Control ([2]; rate 1/100×): 97%; Visual Control ([2]; rate 1× (normal use rate)): 96%; Height ([2]; rate 1×): 1.3 cm; Biomass Reduction ([2]; rate 1×): 99.1%; Biomass ([2]; rate 1×): 0.08 g; Height ([2]; rate 10×): 0.0 cm; Biomass Reduction ([2]; rate 10×): 100.0%; Biomass ([2]; rate 10×): 0.00 g; Visual Control ([2]; rate 10×): 99%; Height ([2]; rate 100×): 0.0 cm; Biomass Reduction ([2]; rate 100×): 100.0%; Biomass ([2]; rate 100×): 0.00 g; Visual Control ([2]; rate 100×): 99%
COc1cc(Cl)nc(NC(=O)NS(=O)(=O)c2ccccc2C(=O)O)n1 [chlorimuron, 2-[[[[(4-chloro-6-methoxy-2-pyrimidinyl)-amino]carbonyl]amino]-sulfonyl]benzoic acid] | 26.5 cm | 3.7% | 3.66 g | 6% | 5% | 23.5 cm | 10.0% | 3.42 g | 15% | 21.8 cm | 3.5% | 3.67 g | 23.5 cm | 17.1% | 3.15 g | 18% | 14.8 cm | 56.8% | 1.64 g | 39% | Height ([2]; rate 1/10×): 14.3 cm; Biomass Reduction ([2]; rate 1/10×): 52.0%; Biomass ([2]; rate 1/10×): 1.65 g; Visual Control ([2]; rate 1/10×): 20%; Height ([2]; rate 1/100×): 27.8 cm; Biomass Reduction ([2]; rate 1/100×): 30.9%; Biomass ([2]; rate 1/100×): 2.37 g; Visual Control ([2]; rate 1/100×): 9%; Visual Control ([2]; rate 1× (normal use rate)): 81%; Height ([2]; rate 1×): 4.8 cm; Biomass Reduction ([2]; rate 1×): 95.8%; Biomass ([2]; rate 1×): 0.14 g; Height ([2]; rate 10×): 1.0 cm; Biomass Reduction ([2]; rate 10×): 98.6%; Biomass ([2]; rate 10×): 0.05 g; Visual Control ([2]; rate 10×): 99%; Height ([2]; rate 100×): 1.3 cm; Biomass Reduction ([2]; rate 100×): 96.7%; Biomass ([2]; rate 100×): 0.11 g; Visual Control ([2]; rate 100×): 99%
COc1nc(C)nc(NC(=O)NS(=O)(=O)c2ccsc2C(=O)O)n1 [thifensulfuron, 3-[[[[(4-methoxy-6-methyl-1,3,5-triazin-2-yl)amino]carbonyl]-amino]sulfonyl]-2-thiophenecarboxylic acid] | 32.5 cm | −17.1% | 4.45 g | 9% | 4% | 36.0 cm | −10.8% | 4.21 g | 22% | 23.0 cm | 8.4% | 3.48 g | 15.8 cm | 40.8% | 2.25 g | 38% | 6.8 cm | 84.7% | 0.58 g | 64% | Height ([2]; rate 1/10×): 11.0 cm; Biomass Reduction ([2]; rate 1/10×): 75.2%; Biomass ([2]; rate 1/10×): 0.85 g; Visual Control ([2]; rate 1/10×): 47%; Height ([2]; rate 1/100×): 25.0 cm; Biomass Reduction ([2]; rate 1/100×): 48.7%; Biomass ([2]; rate 1/100×): 1.76 g; Visual Control ([2]; rate 1/100×): 22%; Visual Control ([2]; rate 1× (normal use rate)): 98%; Height ([2]; rate 1×): 2.0 cm; Biomass Reduction ([2]; rate 1×): 98.0%; Biomass ([2]; rate 1×): 0.07 g; Height ([2]; rate 10×): 0.3 cm; Biomass Reduction ([2]; rate 10×): 98.8%; Biomass ([2]; rate 10×): 0.04 g; Visual Control ([2]; rate 10×): 99%; Height ([2]; rate 100×): 0.5 cm; Biomass Reduction ([2]; rate 100×): 99.1%; Biomass ([2]; rate 100×): 0.03 g; Visual Control ([2]; rate 100×): 99%
COc1cc(OC)nc(Sc2cccc(Cl)c2C(=O)O)n1 [pyrithiobac, 2-chloro-6-[(4,6-dimethoxy-2-pyrimidinyl)thio]benzoic acid] | 22.0 cm | 36.3% | 2.42 g | 21% | 7% | 26.5 cm | 26.8% | 2.78 g | 30% | 17.8 cm | 37.4% | 2.38 g | 11.0 cm | 71.8% | 1.07 g | 48% | 2.5 cm | 98.2% | 0.07 g | 97% | Height ([2]; rate 1/10×): 8.8 cm; Biomass Reduction ([2]; rate 1/10×): 89.2%; Biomass ([2]; rate 1/10×): 0.37 g; Visual Control ([2]; rate 1/10×): 59%; Height ([2]; rate 1/100×): 21.8 cm; Biomass Reduction ([2]; rate 1/100×): 49.6%; Biomass ([2]; rate 1/100×): 1.73 g; Visual Control ([2]; rate 1/100×): 16%; Visual Control ([2]; rate 1× (normal use rate)): 99%; Height ([2]; rate 1×): 2.0 cm; Biomass Reduction ([2]; rate 1×): 98.0%; Biomass ([2]; rate 1×): 0.07 g; Height ([2]; rate 10×): 1.8 cm; Biomass Reduction ([2]; rate 10×): 96.5%; Biomass ([2]; rate 10×): 0.12 g; Visual Control ([2]; rate 10×): 99%; Height ([2]; rate 100×): 0.5 cm; Biomass Reduction ([2]; rate 100×): 98.8%; Biomass ([2]; rate 100×): 0.04 g; Visual Control ([2]; rate 100×): 99%
CCc1cnc(C2=NC(C)(C(C)C)C(=O)N2)c(C(=O)O)c1 (centres unmarked) [imazethapyr, 2-[4,5-dihydro-4-methyl-4-(1-methylethyl)-5-oxo-1H-imidazol-2-yl]-5-ethyl-3-pyridinecarboxylic acid] | 28.0 cm | 21.1% | 3.00 g | 9% | 2% | 32.8 cm | −8.2% | 4.11 g | 16% | 20.3 cm | 31.0% | 2.62 g | 6.8 cm | 86.8% | 0.50 g | 62% | 3.3 cm | 96.1% | 0.15 g | 95% | Height ([2]; rate 1/10×): 10.3 cm; Biomass Reduction ([2]; rate 1/10×): 81.6%; Biomass ([2]; rate 1/10×): 0.63 g; Visual Control ([2]; rate 1/10×): 58%; Height ([2]; rate 1/100×): 25.3 cm; Biomass Reduction ([2]; rate 1/100×): 42.3%; Biomass ([2]; rate 1/100×): 1.98 g; Visual Control ([2]; rate 1/100×): 12%; Visual Control ([2]; rate 1× (normal use rate)): 97%; Height ([2]; rate 1×): 2.3 cm; Biomass Reduction ([2]; rate 1×): 98.3%; Biomass ([2]; rate 1×): 0.06 g; Height ([2]; rate 10×): 0.3 cm; Biomass Reduction ([2]; rate 10×): 97.1%; Biomass ([2]; rate 10×): 0.10 g; Visual Control ([2]; rate 10×): 99%; Height ([2]; rate 100×): 2.3 cm; Biomass Reduction ([2]; rate 100×): 98.3%; Biomass ([2]; rate 100×): 0.06 g; Visual Control ([2]; rate 100×): 95%
